Consider five molecules from patent publication US10526326B2, “Crystalline form and acetic acid adducts of palbociclib” (RATIOPHARM GMBH, priority 2015, dated 2020).

In brackets after ≈: the same amount, converted by molar mass. Counter-ions that a name gives are not always drawn.

The conditions of data set [1]: cited from earlier work.
Data set [2] is described as follows: Dynamic vapor sorption measurement. The data set is classed as physicochemical. As to conditions: for Diffractogram after DVS measurement versus initial: XRPD after humidity cycles. On the procedure:
Vapour sorption experiments were performed in the instrument SPSx-1 μ (Projekt Messtechnik, Ulm, Germany) at a temperature of 25° C., using the humidity cycles specified below: [table]

Data set [3] can be described thus: Solubility determination in aqueous solvents at 37° C. The data set is classed as physicochemical. As to conditions: for solubility at 60 min / solubility at 15 min: 37 °C, thermodynamic from solid. How it is done:
Approximately 200 mg (exactly weighed) test substance was weighed into a glass vial, followed by addition of 2 mL solvent (water, 0.01M HCl, 20 mM NaOAc/HOAc pH 4.5, 50 mM KH2PO4 pH 6.8). A stirring bar was added, the vial was fixed in a block heater at 37° C. and the suspension was stirred with approximately 250 rpm. After 15 min and 1 hour samples were withdrawn, filtered through a 0.2 μm disposable filter, diluted with solvent and quantified by UHPLC/UV.

Data set [4] can be described thus: Solubility determination in organic solvents at room temperature. The data set is classed as physicochemical. As to conditions: chloroform, 23 °C, organic solvent or mixture, thermodynamic from solid, 23° C. (room temperature). On the procedure:
Solubilities in organic solvents (methanol, acetone, chloroform, DMSO) were determined similarly at room temperature with the difference that the suspensions were not stirred but treated with a vortex mixer for 20 s.

Where [5] appears, read: 25° C., humidity cycles 0-95% RH.
The mark [6] stands for this setting: 50 mM KH2PO4 buffer, pH 6.8, aqueous buffer, 50 mM KH2PO4 (pH 6.8).

On to `CC(=O)c1c(C)c2cnc(Nc3ccc(N4CCNCC4)cn3)nc2n(C2CCCC2)c1=O` [Palbociclib in form of the free base, 6-acetyl-8-cyclopentyl-5-methyl-2-{[5-(1-piperazinyl)-2-pyridinyl]amino}pyrido[2,3-d]pyrimidin-7(8H)-one], for which the “Solubility under acidic conditions (in words)” value in data set [1] (at or below pH 4) was “good solubility”. In data set [1], the “Solubility in water (in words)” value is “practically insoluble”.

Take `CC(=O)O.CC(=O)c1c(C)c2cnc(Nc3ccc(N4CCNCC4)cn3)nc2n(C2CCCC2)c1=O` [Palbociclib acetic acid adduct Form 1]: the “Sample weight change after the DVS measurement” value in data set [2] (setting [5]) is reported as −0.5%. Moreover, in data set [2], the “Diffractogram after DVS measurement versus initial” value was “practically identical with the initial one”.

In data set [3] (0.01M HCl, pH 2, simulated gastric fluid), `CC(=O)c1c(C)c2cnc(Nc3ccc(N4CCNCC4)cn3)nc2n(C2CCCC2)c1=O` [Palbociclib in present crystalline Form, 6-acetyl-8-cyclopentyl-5-methyl-2-{[5-(1-piperazinyl)-2-pyridinyl]amino}pyrido[2,3-d]pyrimidin-7(8H)-one] yielded a solubility at 60 min of 4300 µg/mL (≈ 9.61 mM). This molecule came in with a solubility at 15 min in data set [3] (20 mM NaOAc/HOAc buffer, pH 4.5, aqueous buffer, 20 mM NaOAc/HOAc (pH 4.5)) of 16200 µg/mL (≈ 36.2 mM). In data set [3] (setting [6]), this molecule returned a solubility at 15 min of 100 µg/mL (≈ 0.223 mM) and a solubility at 60 min of 100 µg/mL (≈ 0.223 mM). For the same molecule, the “Solubility in aqueous solvents compared with Form A (in words)” value in data set [3] (aqueous solvents) is on record as “comparable to that of Form A”. The solubility at 20 s in data set [4] stood at 86100 µg/mL (≈ 192 mM). In data set [2] (setting [5]), the Maximum water uptake is listed as 1.3% and the “Sample weight change after the DVS measurement” value is −0.2%. Further, the “Diffractogram after DVS measurement versus initial” value in data set [2] is recorded as “practically identical with the initial one”.

Turning to `CC(=O)c1c(C)c2cnc(Nc3ccc(N4CCNCC4)cn3)nc2n(C2CCCC2)c1=O` [dihydrochloride], in data set [1], the “Solubility in water (in words)” value was “good water solubility”.

On to `CC(=O)c1c(C)c2cnc(Nc3ccc(N4CCNCC4)cn3)nc2n(C2CCCC2)c1=O` [hydrochloride], for which, in data set [1], the “Solubility in water (in words)” value is recorded as “good water solubility”.

The term solubility denotes the dissolved amount per volume that the medium holds.
